In PubChem BioAssay (NCI):
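The compound was tested at five concentrations on cells cultured in 96-well plates, with a 48-hour exposure period. GI50 = concentration required for 50% inhibition of growth. TGI is the concentration that stops growth completely.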

Key:
Assay in all cases: growth of human tumour cells (NCI), 48 h
EKVX NSCLC = test system: EKVX NSCLC
HCT-116 colon = test system: HCT-116 colon
K-562 leukemia = test system: K-562 leukemia
NCI-H460 lung = test system: NCI-H460 lung
OVCAR-5 ovarian = test system: OVCAR-5 ovarian
RXF 393 renal = test system: RXF 393 renal
SK-MEL-28 melanoma = test system: SK-MEL-28 melanoma
SNB-19 CNS = test system: SNB-19 CNS
SNB-75 CNS = test system: SNB-75 CNS
U251 CNS = test system: U251 CNS

Row | SMILES | TGI (EKVX NSCLC) [µM] | TGI (HCT-116 colon) [µM] | TGI (K-562 leukemia) [µM] | TGI (NCI-H460 lung) [µM] | TGI (OVCAR-5 ovarian) [µM] | TGI (RXF 393 renal) [µM] | TGI (SK-MEL-28 melanoma) [µM] | TGI (SNB-19 CNS) [µM] | TGI (SNB-75 CNS) [µM] | TGI (U251 CNS) [µM] | GI50 (K-562 leukemia) [µM] | GI50 (OVCAR-5 ovarian) [µM] | GI50 (RXF 393 renal) [µM] | GI50 (SNB-19 CNS) [µM] | GI50 (EKVX NSCLC) [µM] | GI50 (NCI-H460 lung) [µM] | GI50 (SNB-75 CNS) [µM] | GI50 (SK-MEL-28 melanoma) [µM] | GI50 (HCT-116 colon) [µM] | GI50 (U251 CNS) [µM]
1 | O=c1c(-c2ccccc2)c[nH]c2cc([N+](=O)[O-])c(/C(Cl)=C/c3ccccc3)cc12 | 18.6 | 29.9 | 20.7 | 44.8 | > 59.5 | 29.5 | > 55.1 | > 54.5 | 24.1 | 24.4 | – | – | – | – | – | – | – | – | – | –
2 | C[Si](C)(C)C#C[I+]c1ccccc1 | > 100 | 56.6 | > 100 | > 100 | > 100 | > 100 | > 100 | > 100 | > 100 | > 100 | – | – | – | – | – | – | – | – | – | –
3 | O=C(O)CCCN1CCCCC1 | > 100 | > 100 | > 100 | > 100 | > 100 | > 100 | > 100 | > 100 | > 100 | > 100 | – | – | – | – | – | – | – | – | – | –
4 | Cc1c2cc[n+](C)cc2c(C)c2c1[nH]c1ccc(O)cc12 | 83.4 | > 91.6 | > 82.1 | 24.7 | > 100 | > 100 | 66 | 22.5 | 25.7 | 25 | – | – | – | – | – | – | – | – | – | –
5 | CN1CCN(c2ccc3nc(-c4ccc(OCCCN5C(=O)c6cccc7cccc(c67)C5=O)cc4)[nH]c3c2)CC1 | – | – | 4.54 | – | 3.38 | 41.7 | – | 69.6 | – | – | 0.889 | 1.89 | 10 | 31 | – | – | – | – | – | –
6 | CC(=O)O[C@H]1C(=O)[C@]2(C)[C@@H](OC(=O)OCC(O)CO)C[C@H]3OC[C@@]3(OC(C)=O)[C@H]2[C@H](OC(=O)c2ccccc2)[C@]2(O)C[C@H](OC(=O)[C@H](O)[C@@H](NC(=O)c3ccccc3)c3ccccc3)C(C)=C1C2(C)C (some centres undefined) | > 100 | > 38.9 | > 100 | 27.6 | 20.9 | 1.04 | 39.1 | > 100 | < 0.01 | 15.6 | – | – | – | – | – | – | – | – | – | –
7 | COc1cc(-c2ccc(-c3ccc(C(=N)N)s3)s2)cc(OC)c1OC | 4.85 | – | 3.41 | 3.64 | 3.25 | 3.39 | – | – | 2.93 | – | 1.11 | 1.47 | 1.66 | – | 1.92 | 1.99 | 1.5 | – | – | –
8 | Cc1c2cc[n+](C)cc2c(COC2OC(CO)C(O)C2O)c2c3ccccc3n(C)c12 (centres undefined) | > 100 | > 100 | > 100 | > 100 | > 100 | > 100 | > 100 | > 95.7 | 92.4 | > 100 | – | – | – | – | – | – | – | – | – | –
9 | NC(=O)c1cc2ccccc2c(N=Nc2ccccc2)c1O | > 100 | > 100 | > 100 | – | > 100 | > 100 | > 100 | > 100 | > 100 | 49.2 | – | – | – | – | – | – | – | – | – | –
10 | O=C(CCN1CCCC1)Nc1ccc2c(NCCCCc3ccccc3)c3ccccc3nc2c1 | 2.73 | – | – | 1.76 | 2.71 | 2.18 | 3.24 | – | 2.65 | – | – | 1.38 | 0.802 | – | 1.39 | 0.53 | 1.33 | 1.8 | – | –
11 | CCCCN(CCCC)CC(=O)c1ccc2cc(Cl)c3ccccc3c2c1 | > 100 | > 100 | > 100 | 52.1 | > 100 | 46.2 | – | > 100 | 67.3 | 68.8 | – | – | – | – | – | – | – | – | – | –
12 | COc1cccc2c1C(=O)c1c(O)c3c(c(O)c1C2=O)C[C@@](O)(C(C)=O)C[C@@H]3OC1CC(N)C(O)C(C)O1 (some centres undefined) | – | – | – | – | – | – | – | – | – | – | < 0.01 | – | 0.0602 | < 0.0135 | 0.266 | – | 0.0161 | – | < 0.0135 | < 0.0145
13 | CC(C)(C)CC(C)(C)Cc1ccc(OCCOCC[N+](C)(C)Cc2ccccc2)cc1 | – | – | 3.57 | 3.45 | 15.8 | 3 | 3.08 | – | 3.47 | 3.08 | 0.966 | 3.86 | 1.42 | – | – | 1.8 | 1.63 | 1.56 | – | 1.56
14 | CCC1=C(C)C2=NC1=CC1=NC(=C(CC)/C1=C/O)C=C1N=C3C(=C1C)C(=O)C(C(=O)OC)C3=C1NC(=C2)C(C)C1CCC(=O)OC (centres undefined) | > 100 | > 100 | > 100 | > 100 | > 100 | > 100 | > 100 | > 100 | > 100 | > 100 | – | – | – | – | – | – | – | – | – | –
15 | N#Cc1ccc(Nc2nc3nc[nH]c3c(=O)[nH]2)cc1 | > 100 | > 100 | – | > 100 | > 100 | – | > 100 | > 100 | > 100 | > 100 | – | – | – | – | – | – | – | – | – | –
16 | Cc1cc(SCC(=O)c2ccc(Br)cc2)cc(C)[o+]1 | 39.9 | 65.7 | 74.9 | 76.2 | 69.9 | 62 | 42.9 | > 100 | 56.9 | 90 | – | – | – | – | – | – | – | – | – | –
